Experiments:
[1] = biological target: T1, ETB (Sus scrofa, UniProt P35463); test: ETB Antagonistic Activity: radioligand binding assay, effect on specific binding of [^125 I]ET-1 in porcine kidney membrane; conditions: inner medulla of porcine kidney membrane; [^125 I]ET-1 16 pM
T1 construct: Membranes as endothelin receptors were isolated from inner medulla of porcine kidney; from tissue; host or cells: inner medulla of porcine kidney, crude membranes
T1 sequence (P35463 27-443): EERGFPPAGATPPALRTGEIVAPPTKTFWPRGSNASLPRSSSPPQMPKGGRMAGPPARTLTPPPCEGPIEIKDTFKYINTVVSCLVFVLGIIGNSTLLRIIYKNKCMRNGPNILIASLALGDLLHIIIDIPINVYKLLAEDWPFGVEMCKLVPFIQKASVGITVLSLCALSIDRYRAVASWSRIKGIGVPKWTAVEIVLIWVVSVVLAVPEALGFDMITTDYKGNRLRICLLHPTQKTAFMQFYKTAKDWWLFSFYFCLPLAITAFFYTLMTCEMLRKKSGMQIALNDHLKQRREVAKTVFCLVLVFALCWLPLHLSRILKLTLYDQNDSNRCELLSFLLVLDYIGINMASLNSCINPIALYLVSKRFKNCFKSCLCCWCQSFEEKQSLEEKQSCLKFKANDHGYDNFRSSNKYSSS
Method: (ETB Antagonistic Activity)
(§1) Radioligand binding assay:
(§2) (a) Crude receptor membrane preparation:
Membranes as endothelin receptors were isolated from inner medulla of porcine kidney. The inner medulla of porcine kidney was placed in ice-cold buffer (0.25M sucrose, 5 mM Tris-HCl, 0.1 mM EDTA, pH 7.5). The inner medulla was homogenized in five volumes (w/v) of ice-cold buffer using a Brinkman Polytron PT-10 at a setting of 16,000 rpm for three 10-sec periods. The homogenate was centrifuged at 10,000× g for 20 minutes at 4° C. The pellet was discarded and the supernatant was centrifuged at 100,000× g for 60 minutes at 4° C. […]
To determine [^125 I]ET-1 binding to kidney, membrane suspensions prepared from kidney (10 μg of protein) were incubated by constant shaking for 60 minutes at 23° C. with [^125 I]ET-1 (range, 4-900 pM) in a total volume of 250 μl of buffer 1 that contained 0.1 mg/ml of bovine serum albumin. […] The filter disks were washed three times with 0.1 ml of ice-cold 50 mM Tris-HCl buffer (pH 7.5), and the radioactivity was counted in a gamma counter (Hewlett-Packard) with an efficiency of 71%. […] The Kd was determined by Scatchard analysis. […]

[2] = biological target: T2, ETA (Sus scrofa, UniProt Q29010); test: ETA Antagonistic Activity: radioligand binding assay, effect on specific binding of ^125 I-endothelin-1 in porcine aorta membrane; conditions: ^125 I-Endothelin-1 1.67×10^-11 M, room temperature, 60 minutes
T2 construct: The aorta membrane fractions were stored at -80° C. until use; tissue Pel-Freez Biologicals (U.S.A.); host or cells: porcine aorta, crude membrane fraction
T2 sequence (Q29010 21-427): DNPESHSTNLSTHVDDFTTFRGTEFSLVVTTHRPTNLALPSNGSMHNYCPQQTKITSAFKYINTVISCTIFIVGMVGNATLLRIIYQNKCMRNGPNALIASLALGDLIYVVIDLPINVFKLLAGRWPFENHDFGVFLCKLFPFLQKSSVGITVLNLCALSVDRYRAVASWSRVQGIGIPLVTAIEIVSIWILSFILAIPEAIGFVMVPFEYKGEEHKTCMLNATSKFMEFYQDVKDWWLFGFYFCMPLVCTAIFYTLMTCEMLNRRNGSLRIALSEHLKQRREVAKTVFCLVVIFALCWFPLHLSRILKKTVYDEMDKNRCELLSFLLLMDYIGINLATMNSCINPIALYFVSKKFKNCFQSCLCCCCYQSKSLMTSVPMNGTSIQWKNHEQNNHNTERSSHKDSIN
Method: (ETA Antagonistic Activity)
as §1, §2
Porcine aorta was purchased from Pel-Freez Biologicals (U.S.A.) and stored at -80° C. until use.
Porcine aorta (50 g) was thawed and dissected free from fatty tissue, minced with scissors and then homogenized with a polytron (Brinkmann PT-20, maximal speed for 3×10 sec) in 100 ml buffer (0.25M sucrose, 10 mM Tris-HCl, 0.1 mM EDTA).
The homogenate was centrifuged at 10,000 g for 20 minutes at 4° C.
The supernatant, containing the plasma membrane fraction, was centrifuged at 100,000 g for 60 minutes at 4° C., and then resultant pellets were referred to as crude membrane fractions.
The pellets were resuspended in 25 ml of binding assay buffer (50 mM Tris-HCl, 100 mM NaCl, 5 mM MgCl2, 1.5 μg/ml phenylmethylsulfonyl fluoride (PMSF), 120 μg/ml bacitracin, 12 μg/ml leupepcin, 6 μg/ml chymostain, 0.1% bovine serum albumin (BSA), pH 7.5).
The aorta membrane fractions were stored at -80° C. until use.
(b) ^125 I-endothelin-1 binding assay: […]
After incubation, the incubation mixture were filtered through Glass-fiber GF/C filter (pretreated with 0.1% polyethylene imine for 3 hours prior to use) using cell harvester (Brandel M-24S). […] The filters were counted in a gamma counter (Packard Auto Gamma Model 5650).

CCC[C@@H](O)[C@H](C(=O)N[C@@H](Cc1c[nH]c2ccccc12)C(=O)O)c1ccc2c(c1)OCO2 (mixture of isomers) [Compound B, N-[(2RS,3RS)-2-(3,4-Methylenedioxyphenyl)-3-hydroxyhexanoyl]-L-tryptophan]
IC50 [1]: < 10 nM
IC50 [2]: 40 nM

CCC[C@@H](O)[C@H](C(=O)O)c1ccc2c(c1)OCO2 (racemic) [Compound C, (2RS,3RS)-2-(3,4-Methylenedioxyphenyl)-3-hydroxyhexanoic acid]
IC50 [2]: 530 nM

O=C(O)[C@H](Cc1c[nH]c2ccccc12)NC(=O)[C@H](c1ccccc1O)[C@H](O)C1CCCCC1 [Compound A, N-[(2R,3R)-3-Cyclohexyl-2-(2-hydroxyphenyl)-3-hydroxypropionyl]-L-tryptophan]
IC50 [1]: 75 nM

From patent US6207686A, “Endothelin antagonists” (Fujisawa Pharmaceutical Co., Ltd., priority 1994, dated 2001)
